Tested on: retinal ganglion cells (RGCs)
Test: Optic nerve axotomy model of glaucoma: RGC survival in vivo
Set-up: species or system Long-Evans rats
Excerpt: As a model for studying treatment of glaucoma, damaged (axotomized) retinal ganglion cells were employed. Specifically, transection of the optic nerve close to the cell body causes apoptotic death of retinal ganglion cells (RGCs), similar to that found in glaucoma. […] Three days later, the left optic nerve was intraorbitally transected 1 mm from the globe. One day after axotomy, no remarkable change in the fluorescence pattern of RGCs was seen compared to that of controls. RGC density, as assessed by the number of fluorescently-labeled cells, began to decline between 4 and 7 days post axotomy. By 14 days, a substantial number of fluorescently-labeled RGCs appeared to have been lost. Morphologically, in whole-mounted retinas stained with cresyl violet, ganglion cell layer (GCL) of unlesioned control retinas manifest no apoptotic profiles or pyknotic nuclei. In contrast, by 10 days after axotomy, multiple degenerating cell bodies with pyknotic nuclei were apparent in the GCL, and the cell density in this layer appeared to be greatly diminished. When hydroxystilbamidine fluorescence in the GCL was quantified, in unlesioned control retinas the mean RGC density was 2533±104 cells/mm^2 (mean±SD). Within 14 days of axotomy, the mean RGC density decreased to 348±107 (14% of control).
One day after axotomy, activated (di-phosphorylated) p38 was visualized by immunocytochemistry in the RGC layer, but not in control retinas. By Western blotting, phosphorylated p38 was first detected 12 hours after axotomy and reached a maximum at 24 hours before decreasing. SB 203580 was administered intravitreally at the time of axotomy, and repeated at 5 days and 10 days.
Retrograde labeling of retinal ganglion cells. Adult male Long-Evans rats weighing 200 to 250 g were obtained from a local breeder and, for all experimental manipulations, were anesthetized with 1-2% isoflurane and 70% N2O. RGCs were retrogradely labeled with hydroxystilbamidine (Molecular Probes, Eugene, Oreg., also known as Fluoro-Gold™) to allow accurate counting of cell bodies as described in Vorwerk et al., Invest. Ophthalmol. Vis. Sci. 40:813-816. Rats were anesthetized and placed in a small stereotactic instrument. The skull was exposed and kept dry. The bregma was identified and marked, and a small window was drilled above the right hemisphere, leaving the dura intact.
Axotomy. Optic nerve axotomy was performed on the left eye 4 days after retrograde labeling. After incision of the dorsolateral conjunctiva, the lateral extraocular muscle was transected, and the optic nerve was exposed under a stereoscopic microscope. The optic nerve was then transected at a distance of about 1 mm from the eye bulb. During the operation, care was taken to avoid damage to the retinal blood supply.
Drug application. Intravitreal injections were carried out using a 33-gauge needle attached to a 25 μl syringe following pupil dilation with 1% atropine sulfate. The tip of the needle was inserted through the dorsal limbus of the eye under stereomicroscopic visualization. Injections were completed over a period of 1 min. Intravitreal injections of SB 203580 (Calbiochem, San Diego, Calif.), MK801 (Research Biochemicals International, Natick, Mass.) or control solutions (as an equal volume of saline diluent) were performed on operated eyes immediately after axotomy, and repeated 5 and 10 days post axotomy.
Quantification of axotomized RGC survival and histology. […]

SMILES: C[S+]([O-])c1ccc(-c2nc(-c3ccc(F)cc3)c(-c3ccncc3)[nH]2)cc1 (stereo not shown) [SB 203580, 4-(4-fluorophenyl)-2-(4-methylsulfinylphenyl)-5-(4-pyridyl)-1H-imidazole]
- neuroprotection of RGCs (0.2 nmol intravitreal (corresponding to 1.6 μM), 14 days post axotomy): significant degree of neuroprotection
- number of surviving RGCs (10 nmol intravitreal, 14 days post axotomy, axotomy alone 348, control 2,511): 1,347 cells/mm^2
- number of surviving RGCs (14 days post axotomy, intravitreal at axotomy, 5 and 10 days, dose series): increased the number of surviving RGCs in a dose-dependent manner
- RGC protection on addition to MK801, compared with MK801 alone (SB 203580 added to MK801, intravitreal, axotomy): did not offer further protection

Source: patent publication US20030078274A1, “Method of reducing neuronal injury or apoptosis” (priority 1999, published 2003)
